From patent US20200338045A1, “ISOINDOLINE COMPOSITIONS AND METHODS FOR TREATING NEURODEGENERATIVE DISEASE” (priority 2017, published 2020)

Legend:
[1] = COG0102 pharmacokinetics: plasma and CSF concentrations, estimated brain receptor occupancy; format: in vivo, human; settings: 90-560 mg
Method: This trial (ClinicalTrials.gov NCT02907567) was a randomized, double-blind, placebo-controlled clinical trial in mild to moderate Alzheimer's patients (MMSE 18-26) (See FIG. 1 for clinical trial design). The trial was conducted at six sites in Australia. Patients were randomized into placebo (n=5) or CT1812-treated groups: 90 mg (n=4), 280 mg (n=5) or 560 mg (n=5) and treated once daily for 28 days. Clinical chemistry was done at Sydpath (Sydney, AU). Pharmacokinetics were done at CPR Pharma Services (Adelaide, AU). Cerebrospinal fluid samples were taken at screening and day 21-28 of treatment and aliquoted. […] One set of CSF samples was analyzed for Alzheimer's disease biomarkers; protein measurements (Aβ42, A1340, total tau, tau phosphorylated at threonine 181 (phosphorylated tau), NFL and neurogranin) were performed using commercially available ELISA assays from Fujirebio according to the manufacturer's instructions (INNOTEST β-AMYLOID(1-42), INNOTEST β-AMYLOID(1-40), INNOTEST hTau Ag, INNOTEST PHOSPHO-TAU(181P), Uman Diagnostics NFL assay). Neurogranin was measured with a sandwich ELISA method using antibodies Ng2 and Ng22 developed at the University of Gotteborg (Kvartsberg et al. 2015). Identical aliquots of CSF, and plasma were analyzed for protein expression changes via LC/MSMS at Caprion (see below).

plasma proteins = test: LC/MSMS protein expression in plasma (COG0102); format: in vivo, human
Method: Plasma and CSF protein expression were measured by LC/MSMS in samples drawn prior to dosing (Day 0) and at end of dosing (Day 28) and were compared within each patient and between dosing groups.
This trial (ClinicalTrials.gov NCT02907567) was a randomized, double-blind, placebo-controlled clinical trial in mild to moderate Alzheimer's patients (MMSE 18-26) (See FIG. 1 for clinical trial design). The trial was conducted at six sites in Australia. Patients were randomized into placebo (n=5) or CT1812-treated groups: 90 mg (n=4), 280 mg (n=5) or 560 mg (n=5) and treated once daily for 28 days. Clinical chemistry was done at Sydpath (Sydney, AU). Pharmacokinetics were done at CPR Pharma Services (Adelaide, AU). Cerebrospinal fluid samples were taken at screening and day 21-28 of treatment and aliquoted. Plasma samples were taken at screening or Day 1 (one sample) and day 14-28, then spun down to separate plasma and aliquoted. One set of CSF samples was analyzed for Alzheimer's disease biomarkers; protein measurements (Aβ42, A1340, total tau, tau phosphorylated at threonine 181 (phosphorylated tau), NFL and neurogranin) were performed using commercially available ELISA assays from Fujirebio according to the manufacturer's instructions (INNOTEST β-AMYLOID(1-42), INNOTEST β-AMYLOID(1-40), INNOTEST hTau Ag, INNOTEST PHOSPHO-TAU(181P), Uman Diagnostics NFL assay). Neurogranin was measured with a sandwich ELISA method using antibodies Ng2 and Ng22 developed at the University of Gotteborg (Kvartsberg et al. 2015). Identical aliquots of CSF, and plasma were analyzed for protein expression changes via LC/MSMS at Caprion (see below).
Matched screening and day 28 plasma and CSF samples were analyzed by LC/MSMS at Caprion Biosciences Inc. Plasma was depleted of high and medium abundance proteins using a commercial immunoaffinity column, IgY14-Supermix (Sigma). CSF was depleted of only 14 high abundance proteins using MARS-14 (Agilent). All samples were digested with trypsin and plasma samples were fractionated by strong cation exchange chromatography (3 fractions). Both CSF and plasma samples were analyzed using a NanoAcquity UPLC coupled to a Q Exactive MS. […] The 12 most intense peaks per survey scan with charge states 2-8 fragmented and scanned with a mass range from 200 to 2000 m/z at a resolution of 17,500. Raw spectrometer data files for each LC-MS run were aligned independently using Elucidator software (Rosetta Biosoftware). The MS/MS spectra were matched to corresponding peptide sequences found in the Uniprot Human protein database (January 2017) using Mascot software, allowing for up to 2 missed cleavages, a peptide tolerance of 20 ppm, and an MS/MS tolerance of 0.05 Da. Outlier detection was performed by determining the average log-intensity of all isotope groups (IG) over injection order for all samples. Samples with an average value greater than 2 standard deviations from the mean were flagged for investigation. Following data transformation and normalization, expression analysis of the identified isotope groups was performed and the statistical significance of each comparison was assessed with a parametric, linear mixed model (LMM) and a non-parametric Wilcoxon ranked test (ranked p-values). Expression analysis was also performed at the peptide and protein levels, which used the same methodology as above, but applied to peptide/protein intensities, derived by rolling-up the corresponding isotope group intensities. Isotope groups not detected in at least half of the samples in either of the two groups being compared were not used for the roll-up.

[2] = plasma, treated group vs baseline

CC(C)(C)Oc1cc(CCC(C)(C)N2Cc3ccc(S(C)(=O)=O)cc3C2)ccc1O [CT1812]
plasma CT1812 concentration vs dose ([1]; day 28): increased approximately dose proportionally
CSF CT1812 concentration vs dose ([1]; days 22-30): dose dependent increase
Sema3F, % change treated vs placebo (plasma proteins; CSF & Plasma): 47%
Sema3F, With CT1812 (plasma proteins; CSF & Plasma, direction of change): significantly increased and ↑*
Sema3F, % change baseline treated (plasma proteins; CSF & Plasma, treated group vs baseline): 10%
ACOX1, % change treated vs placebo (plasma proteins; plasma): 42%
ANXA1, % change treated vs placebo (plasma proteins; plasma): −61%
ANXA2, % change treated vs placebo (plasma proteins; plasma): −54%
AZGP1, % change treated vs placebo (plasma proteins; plasma): 28%
B4GALT1, % change treated vs placebo (plasma proteins; plasma): 36%
C4BPA, % change treated vs placebo (plasma proteins; plasma): 44%
CFH, % change treated vs placebo (plasma proteins; plasma): 20%
Cathepsin S, % change treated vs placebo (plasma proteins; plasma): 58%
Clusterin, % change treated vs placebo (plasma proteins; plasma): 17%
FUT11, % change treated vs placebo (plasma proteins; plasma): 39%
GALT6, % change treated vs placebo (plasma proteins; plasma): 33%
GPR116, % change treated vs placebo (plasma proteins; plasma): 27%
GXYLT1, % change treated vs placebo (plasma proteins; plasma): 82%
HINT1, % change treated vs placebo (plasma proteins; plasma): −131%
HMGB1, % change treated vs placebo (plasma proteins; plasma): −315%
HRG, % change treated vs placebo (plasma proteins; plasma): 61%
Hex A, % change treated vs placebo (plasma proteins; plasma): 34%
Hex B, % change treated vs placebo (plasma proteins; plasma): 36%
LCAT, % change treated vs placebo (plasma proteins; plasma): 17%
NRP2, % change treated vs placebo (plasma proteins; plasma): 46%
Neprilysin, % change treated vs placebo (plasma proteins; plasma): 4717%
PCK2, % change treated vs placebo (plasma proteins; plasma): 74%
POMGNT1, % change treated vs placebo (plasma proteins; plasma): 41%
PRDX6, % change treated vs placebo (plasma proteins; plasma): −130%
SERPING1, % change treated vs placebo (plasma proteins; plasma): 24%
ST3GAL1, % change treated vs placebo (plasma proteins; plasma): 31%
SUMO3, % change treated vs placebo (plasma proteins; plasma): −77%
TRIM35, % change treated vs placebo (plasma proteins; plasma): 99%
TXN, % change treated vs placebo (plasma proteins; plasma): −98%
WDR81, % change treated vs placebo (plasma proteins; plasma): 142%
ACOX1, With CT1812 (plasma proteins; plasma, direction of change): ↑*
ANXA1, With CT1812 (plasma proteins; plasma, direction of change): significantly reduced and ↓*
ANXA2, With CT1812 (plasma proteins; plasma, direction of change): ↓*
AZGP1, With CT1812 (plasma proteins; plasma, direction of change): ↑*
B4GALT1, With CT1812 (plasma proteins; plasma, direction of change): ↑*
C4BPA, With CT1812 (plasma proteins; plasma, direction of change): significantly increased and ↑*
CFH, With CT1812 (plasma proteins; plasma, direction of change): ↑*
Cathepsin S, With CT1812 (plasma proteins; plasma, direction of change): significantly increase and ↑*
Clusterin, With CT1812 (plasma proteins; plasma, direction of change): increased and ↑
FUT11, With CT1812 (plasma proteins; plasma, direction of change): ↑*
GALT6, With CT1812 (plasma proteins; plasma, direction of change): ↑*
GPR116, With CT1812 (plasma proteins; plasma, direction of change): ↑
GXYLT1, With CT1812 (plasma proteins; plasma, direction of change): significantly increased and ↑*
HINT1, With CT1812 (plasma proteins; plasma, direction of change): significantly reduced and ↓*
HMGB1, With CT1812 (plasma proteins; plasma, direction of change): significantly reduced and ↓*
HRG, With CT1812 (plasma proteins; plasma, direction of change): significantly increased and ↑*
Hex A, With CT1812 (plasma proteins; plasma, direction of change): significantly increased and ↑*
Hex B, With CT1812 (plasma proteins; plasma, direction of change): significantly increased and ↑*
LCAT, With CT1812 (plasma proteins; plasma, direction of change): ↑
NRP2, With CT1812 (plasma proteins; plasma, direction of change): ↑*
Neprilysin, With CT1812 (plasma proteins; plasma, direction of change): ↑*
PCK2, With CT1812 (plasma proteins; plasma, direction of change): ↑
POMGNT1, With CT1812 (plasma proteins; plasma, direction of change): ↑*
PRDX6, With CT1812 (plasma proteins; plasma, direction of change): ↓*
SERPING1, With CT1812 (plasma proteins; plasma, direction of change): significantly increased and ↑*
ST3GAL1, With CT1812 (plasma proteins; plasma, direction of change): ↑*
SUMO3, With CT1812 (plasma proteins; plasma, direction of change): ↓*
TRIM35, With CT1812 (plasma proteins; plasma, direction of change): ↑*
TXN, With CT1812 (plasma proteins; plasma, direction of change): significantly reduced and ↓*
WDR81, With CT1812 (plasma proteins; plasma, direction of change): significantly increased and ↑*
GALT6, With CT1812 (plasma proteins; plasma, direction of change, listed as CT-1812): significantly increased
ACOX1, % change baseline treated (plasma proteins; [2]): 10%
ANXA1, % change baseline treated (plasma proteins; [2]): −18%
ANXA2, % change baseline treated (plasma proteins; [2]): −20%
AZGP1, % change baseline treated (plasma proteins; [2]): 5%
B4GALT1, % change baseline treated (plasma proteins; [2]): 16%
C4BPA, % change baseline treated (plasma proteins; [2]): 21%
CFH, % change baseline treated (plasma proteins; [2]): 6%
Cathepsin S, % change baseline treated (plasma proteins; [2]): 27%
Clusterin, % change baseline treated (plasma proteins; [2]): 4%
FUT11, % change baseline treated (plasma proteins; [2]): 18%
GALT6, % change baseline treated (plasma proteins; [2]): 15%
GPR116, % change baseline treated (plasma proteins; [2]): 9%
GXYLT1, % change baseline treated (plasma proteins; [2]): 38%
HINT1, % change baseline treated (plasma proteins; [2]): −43%
HMGB1, % change baseline treated (plasma proteins; [2]): −67%
HRG, % change baseline treated (plasma proteins; [2]): 10%
Hex A, % change baseline treated (plasma proteins; [2]): 13%
Hex B, % change baseline treated (plasma proteins; [2]): 19%
LCAT, % change baseline treated (plasma proteins; [2]): 6%
NRP2, % change baseline treated (plasma proteins; [2]): 10%
Neprilysin, % change baseline treated (plasma proteins; [2]): 48%
PCK2, % change baseline treated (plasma proteins; [2]): 76%
POMGNT1, % change baseline treated (plasma proteins; [2]): 14%
PRDX6, % change baseline treated (plasma proteins; [2]): −37%
SERPING1, % change baseline treated (plasma proteins; [2]): 4%
ST3GAL1, % change baseline treated (plasma proteins; [2]): 5%
SUMO3, % change baseline treated (plasma proteins; [2]): −35%
TRIM35, % change baseline treated (plasma proteins; [2]): 3%
TXN, % change baseline treated (plasma proteins; [2]): −33%
WDR81, % change baseline treated (plasma proteins; [2]): 33%
GALNT1, GALNT2, GALNT4, and GALNT5 expression (plasma proteins; with treatment): increase with treatment
